The values that follow come from publication PMC9804781, “Identification of a Novel Pseudo‐Natural Product Type IV IDO1 Inhibitor Chemotype” (Angewandte Chemie (International Ed. in English), 2022).

Test [1] has as its target T1, His-tagged IDO2 (Homo sapiens, UniProt Q6ZQW0).
T1 construct: His; purchased BPS Bioscience 72035 (kit)
T1 sequence (Q6ZQW0 1-407): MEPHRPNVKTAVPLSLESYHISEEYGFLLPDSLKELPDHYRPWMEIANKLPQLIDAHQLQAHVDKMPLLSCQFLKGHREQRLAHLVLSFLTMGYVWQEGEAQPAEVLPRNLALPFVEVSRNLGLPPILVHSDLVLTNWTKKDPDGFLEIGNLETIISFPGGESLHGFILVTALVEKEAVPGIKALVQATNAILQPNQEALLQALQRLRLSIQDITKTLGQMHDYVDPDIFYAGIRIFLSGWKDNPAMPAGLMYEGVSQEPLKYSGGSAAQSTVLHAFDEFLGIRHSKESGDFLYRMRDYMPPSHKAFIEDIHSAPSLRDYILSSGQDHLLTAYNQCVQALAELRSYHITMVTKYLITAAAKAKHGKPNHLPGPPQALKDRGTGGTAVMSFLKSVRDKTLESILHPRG
The experiment in a line: IDO2 Activity Assay. The format is biochemical. The settings on record: 50 µM; 90 min + 120 min at 30 °C. Here is the method: Inhibition of indoleamine 2,3-dioxygenase 2 (IDO2) was tested using the Universal IDO1/IDO2/TDO Inhibitor Screening Assay Kit (cat# 72035, BPS Bioscience, US). 10 µg His-tagged IDO2 in IDO2 Assay Buffer was incubated with Complete IDO2 Reaction Solution (1% (v/v) component 2 in component 1) and 50 µM Test Inhibitor (0.5% (v/v) DMSO) for 90 min at 30°C with slow shaking in the dark prior to initiation of the reaction by addition of 20% (v/v) IDO2 Substrate. Samples were incubated for 120 min at 30°C with slow shaking in the dark. Afterwards, absorbance at 321 nm was recorded on the Spark® Multimode Microplate Reader (Tecan, AT), all values were subtracted by the background and normalized to the DMSO control.

For test [2], the target named is T2, His-tagged TDO (Homo sapiens, UniProt P48775).
T2 construct: His; purchased BPS Bioscience 72035 (kit)
T2 sequence (P48775 whole entry): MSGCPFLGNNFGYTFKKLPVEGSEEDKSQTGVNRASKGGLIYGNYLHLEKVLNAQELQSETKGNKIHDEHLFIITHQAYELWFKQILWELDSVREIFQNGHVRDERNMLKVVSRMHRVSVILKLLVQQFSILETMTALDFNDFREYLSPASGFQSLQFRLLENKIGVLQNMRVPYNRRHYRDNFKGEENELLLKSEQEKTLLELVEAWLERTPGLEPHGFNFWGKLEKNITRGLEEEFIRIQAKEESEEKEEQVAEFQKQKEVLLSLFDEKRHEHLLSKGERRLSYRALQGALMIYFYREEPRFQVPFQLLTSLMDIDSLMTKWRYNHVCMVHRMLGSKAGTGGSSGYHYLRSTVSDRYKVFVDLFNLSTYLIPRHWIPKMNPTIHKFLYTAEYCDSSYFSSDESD
The experiment in a line: TDO Activity Assay. The format is biochemical. To be noted: 50 µM; 120 min at 37 °C. Here is the method: Inhibition of tryptophan 2,3-dioxygenase (TDO) was tested using the Universal IDO1/IDO2/TDO Inhibitor Screening Assay Kit (cat# 72035, BPS Bioscience, US). 500 ng His-tagged TDO in TDO Assay Buffer was incubated with Reaction Solution and 50 µM Test Inhibitor (0.5% (v/v) DMSO) for 120 min at 37°C with slow shaking in the dark. Afterwards, absorbance at 321 nm was recorded on the Spark® Multimode Microplate Reader (Tecan, AT), all values were subtracted by the background and normalized to the DMSO control. […]
(v/v) component 2 in component 1) and 50 µM Test Inhibitor (0.5% (v/v) DMSO) for 90 min at 30°C with slow shaking in the dark prior to initiation of the reaction by addition of 20% (v/v) IDO2 Substrate. Samples were incubated for 120 min at 30°C with slow shaking in the dark. […]

Test [3] concerns the target T3, rhIDO1 (holo-IDO1) (Homo sapiens, UniProt P14902).
T3 construct: His; made in house; host or cells: E. coli
As to the kind of experiment: UV/Vis spectrophotometry of the Soret peak (heme loss). It is filed as binding. To be noted: holo-IDO1, 2 h at 37 °C. The method, then:
using the ChemiDoc MP Imaging System (Bio-Rad Laboratories, DE). IDO1 protein levels were normalized to the levels of reference protein vinculin.
BxPC-3 cells (10,000 cells/well) were seeded in 96-well plates and incubated for 24 h prior to addition of 50 ng/mL IFN-γ and compounds at indicated concentrations for 48 h. Cells were fixed with 4% paraformaldehyde for 20 min at room temperature followed by permeabilization with 0.5% Triton X-100 for 15 min at room temperature. Afterwards, unspecific binding sites were blocked with 5% non-fat milk in PBS with 0.1% (v/v) Tween-20 (PBS-T) for 60 min at room temperature followed by overnight incubation at 4°C with the primary antibodies. […]
11 µM rhIDO1 was incubated with compounds at indicated concentrations for 60 min at 37°C in 50 mM potassium phosphate buffer (16.9 mM K2HPO4, 33.1 mM, KH2PO4, pH 6.5). The thermal protein stability from 20°C to 90°C (1°C/min) was measured by means of the intrinsic tryptophan/tyrosine fluorescence using the Prometheus™ NT.48 (NanoTemper® Technologies, DE). Melting scans, first derivatives of melting scans and melting temperatures were analyzed using PR.ThermControl software (NanoTemper® Technologies, DE). […]
transparent microplates (UV-STAR®, Greiner AG, AT). Subsequently, absorbance spectra from 250 nm to 550 nm were recorded on the Spark® Multimode Microplate Reader (Tecan, AT). […]

T3 sequence (P14902 whole entry): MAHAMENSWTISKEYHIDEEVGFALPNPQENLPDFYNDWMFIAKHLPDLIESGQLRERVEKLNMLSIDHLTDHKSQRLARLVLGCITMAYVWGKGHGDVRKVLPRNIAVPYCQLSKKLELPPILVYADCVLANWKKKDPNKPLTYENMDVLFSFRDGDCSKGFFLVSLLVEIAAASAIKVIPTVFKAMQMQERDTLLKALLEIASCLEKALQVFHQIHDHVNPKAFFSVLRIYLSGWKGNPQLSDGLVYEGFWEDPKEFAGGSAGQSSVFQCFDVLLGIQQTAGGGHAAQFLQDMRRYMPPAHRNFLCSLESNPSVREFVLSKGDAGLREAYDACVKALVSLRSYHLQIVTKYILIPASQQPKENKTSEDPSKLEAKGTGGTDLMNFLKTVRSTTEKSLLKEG

In the case of `CCOC(=O)C1=CC[C@](C(=O)OC)(c2cc3ccccc3n2C)N(S(=O)(=O)c2ccc(C)cc2)[C@@H]1C(=O)OC(C)(C)C` [Compound 3d], the “inhibition of IDO2 (result in words)” value in test [1] is reported as “did not inhibit”. For the same compound, the “inhibition of TDO (result in words)” value in test [2] is “did not inhibit”. The “effect on Soret peak at 404 nm (heme loss)” value in test [3] is “reduced the Soret peak”.
